The target of this assay is SARS-CoV-2 spike glycoprotein ectodomain (Severe acute respiratory syndrome coronavirus 2, UniProt P0DTC2, K986P/R682G/R683S/R685S/V987P). Type of assay: binding. As to conditions: pH 7.5.

From paper PMC10284550, “Accelerating drug target inhibitor discovery with a deep generative foundation model” (Science Advances, 2023) come the findings set out here.

Structures are written as SMILES. “Also recorded” adds a separate entry of the source.

For `C#CCN1CCC(CCNc2ccnc3ccccc23)CC1` [GEN727], the “Effect on stability of the spike (thermofluor)” value is “appeared to reduce the speed of the transition of the spike to a less stable form; also recorded: somewhat destabilized the spike”.
